Measurements: patent US20240246918A1, “COMPOUNDS AND COMPOSITIONS AS EIF4E INHIBITORS AND THE USES THEREOF” (Ribometrix, Inc., priority 2022, published 2024)

Legend:
human eIF4E protein = target: T1, human eIF4E protein (Homo sapiens, UniProt P06730); assay: Biochemical competitive binding assay (TR-FRET competition, EDA-m7GDP-ATTO-647N probe); conditions: read-out: hEIF4E TR-FRET IC50
T1 construct: purchased Novus NBP-45314
Outline: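 IC50 values come from 4-parameter fits of the normalized 665/620 nm TR-FRET ratio. Compound was first incubated 15 min with 4 nM recombinant His-eIF4E bound to 2.5 nM Eu-anti-His antibody, then 15 min with 5 nM m7GDP-ATTO-647N tracer, in pH 7.5 HEPES buffer with 100 mM KCl, Tween-20 and BSA.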

[1] = test system: COLO 205 colorectal tumor cells; assay: Tumor cell viability inhibition assay (CellTiter-Glo 2.0, 72 hours); type: cell-based; conditions: COLO 205 cell viability
Outline: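 IC50 derived by 4-parameter fitting after normalizing luminescence to DMSO and max-inhibition wells. Compounds tested as 11 concentrations in 4-fold steps on COLO 205 cells seeded at 1500 per well in RPMI-1640/10% FBS; ATP content measured with CellTiter-Glo 2.0 after 72 h.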

T1 sequence (P06730 whole entry): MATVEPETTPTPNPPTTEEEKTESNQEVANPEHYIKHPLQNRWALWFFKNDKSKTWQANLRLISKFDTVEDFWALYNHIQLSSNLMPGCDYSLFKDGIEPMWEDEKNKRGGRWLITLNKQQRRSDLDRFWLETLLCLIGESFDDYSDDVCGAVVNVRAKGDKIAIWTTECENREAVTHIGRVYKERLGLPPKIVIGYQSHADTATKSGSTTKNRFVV

SMILES	IC50 (human eIF4E protein) [µM]	IC50 ([1]; Homo sapiens, COLO 205, 72 h) [µM]	IC50 [1] [µM]
Cc1cc(-c2cc(Cl)ccc2OCCn2c(C)nc3c(c2=O)CC(CN(C)C)(N2CCC(OC(F)(F)F)CC2)CC3)c2scc(C(=O)O)c2n1 (single isomer, unassigned) [Compound 621]	0.1 to 0.5		> 20
Cc1cc(-c2cc(Cl)ccc2OCCn2c(C)nc3c(c2=O)C[C@@H](N2CCC[C@@H](OC(F)(F)F)C2)CC3)c2scc(C(=O)O)c2n1 (single isomer, unassigned) [Compound 458]	< 0.1	< 5	
Cc1cc(-c2cc(Cl)ccc2OCCn2c(C)nc3c(c2=O)C[C@@H](N2CCC(COC(F)(F)F)CC2)CC32CC2)c2scc(C(=O)O)c2n1 (single isomer, unassigned) [Compound 561]	< 0.1	< 5	
Cc1cc(-c2cc(Cl)ccc2OCCn2c(C)nc3c(c2=O)C[C@@H](N2CCO[C@@H](CC(F)(F)F)C2)CC3)c2scc(C(=O)O)c2n1 (single isomer, unassigned) [Compound 524]	< 0.1	< 5	
Cc1cc(-c2cc(Cl)ccc2OCCn2c(C)nc3c(c2=O)C[C@@H](N2CCCC(F)(F)CC2)CC3)c2scc(C(=O)O)c2n1 (single isomer, unassigned) [Compound 402]	< 0.1	< 5	
Cc1cc(-c2cc(Cl)ccc2OCCn2c(C)nc3c(c2=O)C[C@H](N2CCC[C@]4(C2)CC4(F)F)CC3(C)C)c2scc(C(=O)O)c2n1 (single isomer, unassigned) [Compound 438]	< 0.1	< 5	
Cc1cc(-c2cc(Cl)ccc2OCCn2c(C)nc3c(c2=O)C[C@@H](N2CCC4(CC2)CC4(F)F)CC32CC2)c2scc(C(=O)O)c2n1 (single isomer, unassigned) [Compound 591]	< 0.1	< 5	
Cc1cc(-c2cc(Cl)ccc2OCCn2c(C)nc3c(c2=O)C[C@@H](N2CCC(C(F)(F)F)CC2)CC32CC2)c2scc(C(=O)O)c2n1 (single isomer, unassigned) [Compound 603]	< 0.1	< 5	
Cc1cc(-c2cc(Cl)ccc2OCCn2c(C)nc3c(c2=O)CC(C)(N2CCC(OC(F)(F)F)CC2)CC3)c2scc(C(=O)O)c2n1 (single isomer, unassigned) [Compound 516]	< 0.1		< 5
Cc1cc(-c2cc(Cl)ccc2OCCn2c(C)nc3c(c2=O)C[C@@H](N2[C@@H]4CC[C@H]2C[C@H](OC(F)(F)F)C4)CC3)c2scc(C(=O)O)c2n1 (single isomer, unassigned) [Compound 397]	0.1 to 0.5	5 to 20	
Cc1cc(-c2cc(Cl)ccc2OCCn2c(C)nc3c(c2=O)C[C@@H](N2CC[C@H](OC(F)(F)F)C2)CC3)c2scc(C(=O)O)c2n1 (single isomer, unassigned) [Compound 388]	< 0.1	< 5	
Cc1cc(-c2cc(Cl)ccc2OCCn2c(C)nc3c(c2=O)C[C@@H](N2CCC(c4cnc(C(F)(F)F)nc4)CC2)CC3)c2scc(C(=O)O)c2n1 (single isomer, unassigned) [Compound 585]	< 0.1	< 5	
Cc1cc(-c2cc(Cl)ccc2OCCn2c(C)nc3c(c2=O)C[C@@H](N2CC[C@@H](C(F)F)C2)CC3)c2scc(C(=O)O)c2n1 (single isomer, unassigned) [Compound 120]	< 0.1	< 5	
Cc1cc(-c2cc(Cl)ccc2OCCn2c(C)nc3c(c2=O)C[C@H](N2CCC(COC(F)(F)F)CC2)CC32CC2)c2scc(C(=O)O)c2n1 (single isomer, unassigned) [Compound 560]	< 0.1	< 5	
Cc1cc(-c2cc(Cl)ccc2OCCn2c(C)nc3c(c2=O)C[C@@H](N2CCC[C@H](C(F)F)C2)CC3)c2scc(C(=O)O)c2n1 (single isomer, unassigned) [Compound 101]	< 0.1	< 5	
Cc1cc(-c2cc(Cl)ccc2OCCn2c(C)nc3c(c2=O)C[C@H](NC24CC5CC(CC(C5)C2)C4)CC3)c2scc(C(=O)O)c2n1 (single isomer, unassigned) [Compound 412]	< 0.1	< 5	
Cc1cc(-c2cc(Cl)ccc2OCCn2c(C)nc3c(c2=O)C[C@@H](N2CCC4(CC2)CC(F)(F)CO4)CC3)c2scc(C(=O)O)c2n1 (single isomer, unassigned) [Compound 490]	< 0.1	< 5	
Cc1cc(-c2cc(Cl)ccc2OCCn2c(C)nc3c(c2=O)C[C@H](N2CCC4(CCCO4)CC2)CC3)c2scc(C(=O)O)c2n1 (single isomer, unassigned) [Compound 420]	< 0.1	5 to 20	
Cc1cc(-c2cc(Cl)c(=O)[nH]c2OCCn2c(C)nc3c(c2=O)CC(N(C)CC2CC(F)(F)C2)CC3)c2scc(C(=O)O)c2n1 (single isomer, unassigned) [Compound 237]	0.5 to 5	> 20	
Cc1cc(-c2cc(Cl)ccc2OCCn2c(C)nc3c(c2=O)C[C@H](N2CCCCC(F)(F)C2)CC3)c2scc(C(=O)O)c2n1 (single isomer, unassigned) [Compound 469]	< 0.1	< 5	
Cc1csc([C@H]2CCCN([C@H]3CCc4nc(C)n(CCOc5ccc(Cl)cc5-c5cc(C)nc6c(C(=O)O)csc56)c(=O)c4C3)C2)n1 (single isomer, unassigned) [Compound 482]	< 0.1	< 5	
Cc1cc(-c2cc(Cl)ccc2OCCn2c(C)nc3c(c2=O)CC(N2CCC4(CC2)CN(CC(F)(F)F)CC4(F)F)CC3)c2scc(C(=O)O)c2n1 (single isomer, unassigned) [Compound 529]	< 0.1	< 5	
Cc1cc(-c2cc(Cl)ccc2OCCn2c(C)nc3c(c2=O)C[C@@H](N2CCCC[C@H]2c2cccc(F)c2)CC32CC2)c2scc(C(=O)O)c2n1 (single isomer, unassigned) [Compound 628, 7-(5-chloro-2-(2-(6′-(2-(3-fluorophenyl)piperidin-1-yl)-2′-methyl-4′-oxo-6′,7′-dihydro-4′H-spiro[cyclopropane-1,8′-quinazolin]-3′(5′H)-yl)ethoxy)phenyl)-5-methylthieno[3,2-b]pyridine-3-carboxylic acid]	< 0.1	< 5	
Cc1cc(-c2cc(Cl)ccc2OCCn2c(C)nc3c(c2=O)C[C@H](N2CCCC[C@@H]2c2cccc(F)c2)CC32CC2)c2scc(C(=O)O)c2n1 (single isomer, unassigned) [Compound 634, 7-(5-chloro-2-(2-(6′-(2-(3-fluorophenyl)piperidin-1-yl)-2′-methyl-4′-oxo-6′,7′-dihydro-4′H-spiro[cyclopropane-1,8′-quinazolin]-3′(5′H)-yl)ethoxy)phenyl)-5-methylthieno[3,2-b]pyridine-3-carboxylic acid]	0.1 to 0.5	> 20	
Cc1cc(-c2cc(Cl)ccc2OCCn2c(C)nc3c(c2=O)C[C@@H](N2CCC(OC(F)F)CC2)CC3)c2scc(C(=O)O)c2n1 (single isomer, unassigned) [Compound 360]	< 0.1	< 5	

Other lines, results leading:

IC50 (human eIF4E protein) [µM]	IC50 ([1]; Homo sapiens, COLO 205, 72 h) [µM]	IC50 [1] [µM]	SMILES
< 0.1	< 5		Cc1cc(-c2cc(Cl)ccc2OCCn2c(C)nc3c(c2=O)C[C@H](N2CCC(n4cccn4)CC2)CC3)c2scc(C(=O)O)c2n1 (single isomer, unassigned) [Compound 473]
< 0.1	5 to 20		CO[C@@H]1CCN([C@H]2CCc3nc(C)n(CCOc4ccc(Cl)cc4-c4cc(C)nc5c(C(=O)O)csc45)c(=O)c3C2)CC12CC2 (single isomer, unassigned) [Compound 521]
< 0.1	> 20		Cc1cc(-c2cc(Cl)ccc2OCCn2c(C)nc3c(c2=O)C[C@H](N2CCC(c4ccn(C)n4)CC2)CC3)c2scc(C(=O)O)c2n1 (single isomer, unassigned) [Compound 453]
< 0.1	< 5		Cc1cc(-c2cc(Cl)ccc2OCCn2c(C)nc3c(c2=O)C[C@@H](N2CCC(c4nc5ccc(F)cc5s4)CC2)CC3)c2scc(C(=O)O)c2n1 (single isomer, unassigned) [Compound 594]
< 0.1	5 to 20		Cc1cc(-c2cc(Cl)ccc2OCCn2c(C)nc3c(c2=O)C[C@H](N2CCCC[C@H]2C)CC3)c2scc(C(=O)O)c2n1 (single isomer, unassigned) [Compound 408]
0.1 to 0.5	5 to 20		Cc1cc(-c2cc(Cl)ccc2OCCn2c(C)nc3c(c2=O)C[C@@H](N2CCCC[C@@H]2c2cccc(C(F)(F)F)c2)CC3)c2scc(C(=O)O)c2n1 (single isomer, unassigned) [Compound 588]
< 0.1	5 to 20		CO[C@@H]1CCN([C@@H]2CCc3nc(C)n(CCOc4ccc(Cl)cc4-c4cc(C)nc5c(C(=O)O)csc45)c(=O)c3C2)C[C@@H]1F (single isomer, unassigned) [Compound 366]
< 0.1	< 5		Cc1cc(-c2cc(Cl)ccc2OCCn2c(C)nc3c(c2=O)C[C@@H](N2CCCC[C@H]2c2cccc(F)c2)CC3)c2scc(C(=O)O)c2n1 (single isomer, unassigned) [Compound 542]
< 0.1		< 5	COc1cc(CN(C)C2CCc3nc(C)n(CCOc4ccc(Cl)cc4-c4cc(C)nc5c(C(=O)NS(C)(=O)=O)csc45)c(=O)c3C2)ccn1 (single isomer, unassigned) [Compound 220]
< 0.1	< 5		Cc1cc(-c2cc(Cl)ccc2OCCn2c(C)nc3c(c2=O)C[C@H](N2CCC(Oc4ccc(F)cc4F)CC2)CC3)c2scc(C(=O)O)c2n1 (single isomer, unassigned) [Compound 595]
< 0.1	< 5		Cc1cc(-c2cc(Cl)ccc2OCCn2c(C)nc3c(c2=O)CC(N(C)C24CC5CC(CC(C5)C2)C4)CC3)c2scc(C(=O)O)c2n1 (single isomer, unassigned) [Compound 468]
